The record followed here is the NIST ThermoML archive (doi:10.1016/j.jct.2013.05.006).

Numbers after ± are expanded uncertainties.

A short description of this series: activity coefficient (dimensionless); of the first substance listed, at infinite dilution; xn = mol fraction of the nth substance listed. Conditions: 298 K; 101 kPa; Liquid; Chromatography; x1 = 0.
`Clc1ccccc1Cl` [1,2-dichlorobenzene] + NC=O: the activity coefficient came to 159 ± 17.

Regarding `c1ccccc1` [benzene] + NC=O, the activity coefficient stood at 53 ± 6.

Consider `c1ccc(-c2ccccc2)cc1` [biphenyl] + NC=O, for which the activity coefficient was determined as 1320 ± 150.

For `Brc1ccccc1` [bromobenzene] + NC=O, the activity coefficient is 107 ± 13.

On to `Clc1ccccc1` [chlorobenzene] + NC=O, for which the activity coefficient was 94 ± 16.

As for `Fc1ccccc1` [fluorobenzene] + NC=O, the activity coefficient came to 54 ± 6.

On to `c1ccc2ccccc2c1` [naphthalene] + NC=O, for which the activity coefficient came out at 533 ± 63.

Take `Cc1ccccc1` [toluene] + NC=O: the activity coefficient was 81 ± 8.
